The assay concerns the target Vascular endothelial growth factor receptor 2 (Homo sapiens, UniProt P35968). Description: In vitro Inhibition Assay. The settings on record: 30 °C. How it is done:
Assays are performed for 15 min at 30 °C, with 50 µM of P33-ATP in a final volume of 25 µL. The assays are terminated by spotting 20 µL of the reaction mixture onto a phosphocellulose P81 plate. The P81 plate was washed 3 times for ~15 min each in a 1% phosphoric acid solution to remove excess unreacted P33-ATP.

SMILES strings stand for the structures.

Vascular endothelial growth factor receptor 2, sequence (P35968 whole entry): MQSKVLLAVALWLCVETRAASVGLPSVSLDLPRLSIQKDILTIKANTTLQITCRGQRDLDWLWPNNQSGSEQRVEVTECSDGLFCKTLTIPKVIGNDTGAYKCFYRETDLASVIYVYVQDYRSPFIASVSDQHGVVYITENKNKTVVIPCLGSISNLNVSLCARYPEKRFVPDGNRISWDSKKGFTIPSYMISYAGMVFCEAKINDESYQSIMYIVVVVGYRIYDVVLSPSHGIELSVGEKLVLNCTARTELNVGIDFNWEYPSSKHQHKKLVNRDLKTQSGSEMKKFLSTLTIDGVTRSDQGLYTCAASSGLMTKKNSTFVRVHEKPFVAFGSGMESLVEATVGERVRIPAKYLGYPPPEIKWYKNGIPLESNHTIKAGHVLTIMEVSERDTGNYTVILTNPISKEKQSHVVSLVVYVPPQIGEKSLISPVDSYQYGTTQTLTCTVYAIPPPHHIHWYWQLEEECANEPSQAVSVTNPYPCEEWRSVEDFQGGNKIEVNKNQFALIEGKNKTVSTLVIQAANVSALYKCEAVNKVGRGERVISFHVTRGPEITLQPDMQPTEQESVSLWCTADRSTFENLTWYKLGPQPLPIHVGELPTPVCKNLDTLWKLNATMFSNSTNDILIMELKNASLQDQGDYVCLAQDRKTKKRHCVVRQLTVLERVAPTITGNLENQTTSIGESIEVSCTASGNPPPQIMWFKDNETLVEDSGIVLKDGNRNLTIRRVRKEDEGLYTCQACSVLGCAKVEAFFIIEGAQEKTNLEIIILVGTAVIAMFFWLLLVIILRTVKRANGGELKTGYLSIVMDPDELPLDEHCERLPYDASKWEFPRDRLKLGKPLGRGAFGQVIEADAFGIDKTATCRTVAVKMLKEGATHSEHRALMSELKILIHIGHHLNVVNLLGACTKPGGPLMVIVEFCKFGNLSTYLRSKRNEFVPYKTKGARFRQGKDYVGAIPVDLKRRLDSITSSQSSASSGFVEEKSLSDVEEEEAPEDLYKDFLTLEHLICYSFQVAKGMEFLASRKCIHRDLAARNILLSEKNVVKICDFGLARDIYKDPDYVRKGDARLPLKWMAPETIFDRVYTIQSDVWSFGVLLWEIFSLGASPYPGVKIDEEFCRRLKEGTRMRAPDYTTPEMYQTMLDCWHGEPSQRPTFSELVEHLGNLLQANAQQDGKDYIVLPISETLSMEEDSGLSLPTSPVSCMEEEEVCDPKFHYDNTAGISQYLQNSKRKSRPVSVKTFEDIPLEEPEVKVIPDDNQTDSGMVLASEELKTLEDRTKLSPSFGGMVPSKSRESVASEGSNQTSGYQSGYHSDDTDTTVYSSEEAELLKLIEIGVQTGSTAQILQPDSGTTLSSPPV

Usually IC50 stands for the concentration at which inhibition is half-maximal. A lower IC50 goes with higher potency. `COc1ccc(Nc2nc3ccc(NC(=O)Nc4ccccc4)cc3[nH]c2=O)cc1` [1-(2-((4-Methoxyphenyl)amino)-3-oxo-3,4 dihydroquinoxalin-6-yl)-3-phenylurea (VIIa)]: half-maximal inhibition (IC50) required 10.3 µM.
`COc1ccc(Nc2cnc3cc(NC(=O)Nc4cccc(C)c4)ccc3n2)cc1` [1-(2-((4-Methoxyphenyl)amino)quinoxalin-6-yl)-3-(m-tolyl) urea (XVIc)] showed a concentration for half-maximal inhibition (IC50) of 210 µM.
Under `O=C(Nc1ccc(Nc2cnc3cc([N+](=O)[O-])ccc3n2)cc1)Nc1cccc(Cl)c1` [1-(3-Chlorophenyl)-3-(4-((6-nitroquinoxalin-2-yl)amino)-phenyl)urea (XXIb)] stands 85.4 µM; under `O=C(Nc1ccccc1)Nc1ccc(Nc2cnc3cc([N+](=O)[O-])ccc3n2)cc1` [1-(4-((6-Nitroquinoxalin-2-yl)amino)phenyl)-3-phenylurea (XXIa)], 268 µM.
In turn, `COc1ccc(Nc2nc3ccc(NC(=O)c4ccccc4C(=O)O)cc3[nH]c2=O)cc1` [2-((2-((4-Methoxyphenyl)amino)-3-oxo-3,4-dihydroquinoxalin-6-yl)carbamoyl)benzoic acid (IX)] had a 50% inhibitory concentration (IC50) of 61.8 µM.
